According to patent EP3546478A1, “NEW PEPTIDE DERIVATIVES OF PLATELET DERIVED GROWTH FACTOR (PDGF), A METHOD FOR THEIR PREPARATION, PHARMACEUTICAL COMPOSITIONS CONTAINING THEM AND APPLICATION OF THESE COMPOSITIONS” (Uniwersytet Gdanski, priority 2018, dated 2019):
Positions of bridges follow the written chain, without caps; N, C: chain ends. Residues, ends and D or L forms follow the SMILES beside them. Chains are numbered I, II in the order given. No end group written: not given here.

How the values were obtained:
[1] = test system: human primary dermal fibroblasts; experiment: Chemotaxis through culture inserts, calcein fluorometry; format: cell-based; conditions: 1 µg / ml, 24 hours of incubation
Method: The effect of the compound PDGF2 compound at a concentration of 1 µg / ml on the chemotaxis of HaCaT keratinocytes, and the effect of PDGF2 and PDGF3 at a concentration of 1 µg / ml on the chemotaxis of primary fibroblasts, were investigated. Cells were "starved" in serum-free medium for 24 hours before the experiment. They were then seeded in serum-free medium in culture inserts (Grainer bio one, 8 µm) placed in a 24-well plate. Serum-free medium containing PDGF2 or PDGF3 was added to the wells. Controls in the test were: serum free medium and medium containing 10% FBS. After 24 hours of incubation, the cells were stained with calcein. Cells that migrated through the insert membrane were then detached with trypsin and a fluorometric measurement was performed (excitation wavelength 485, emission wavelength 520 nm).

[2] = test system: primary skin fibroblasts; experiment: XTT proliferation test; format: cell-based, human
Method: (§1) The effect of PDGF derivatives (PDGF1, […]1, PDGF2, PGDF3, PDGF2_NE, PDGF2-HTT) on the proliferation of immortalized human 46BR.1N skin fibroblast cells, HaCaT skin keratinocytes (for each peptide 4 experimental cycles for HaCaT and 46BR.1N cells) and primary skin fibroblasts (for each peptide 4 experimental cycles, usingcells isolated from 4 patients) was investigated. Their cytotoxicity to these cells was also checked. The cells were incubated with peptides previously dissolved in double-distilled, sterile water. Proliferation tests (XTT test) were performed at the following concentrations: 0.01, 0.1, 1, 10, 25, 50, 100 and 150 μg / ml. Cytotoxicity tests (LDH) were performed at concentrations of 50, 100 and 150 μg / ml.

[3] = test system: HaCaT keratinocytes; format: cell-based, human
Method: as §1

[4] = test system: 46BR.1N fibroblasts; format: cell-based, human; conditions: 0.1, 1 and 10 µg / ml after 48h and 72h
Method: as §1

[5] = test system: dendritic cells; format: cell-based, human
Method: Tests were conducted on human peripheral blood mononuclear cells (PBMC), isolated from "buffy coats" using a ficoll density gradient (histopaque, Sigma). Following two wash steps (in PBS), erythrocyte lysis and cell counting (cell counter, Bio-Rad), the PBMCs were seeded onto a 24-well culture plate at a density of 1 mln cells/1 ml of RPMI 1640 (P/S, 10% FBS)/well. Thecells were then allowed to adapt to the culture conditions for the next 24h. After cell resting, PDGF2 was added to the wells in a final concentration of 1.0 µg/ml, and the cells were incubated for the next 48h under appropriate conditions (37°C, 5% CO2). The untreated cells constituted a negative control, whereas cells stimulated with LPS (1 µg/ml) and PHA (2,5 µg/ml) were a positive control. After incubation, the PBMCs were collected, washed with PBS, counted and prepared for flow cytometry analysis under the following conditions: 10^4 cells/ 100µl were stained with monoclonal, fluorochrome-stained antibodies (anti-CD3, CD4, CD8, CD16, CD56, CD25, CD69, CD71, HLA-DR, CD11c, CD80, CD83). Following 30 min of incubation at RT in the dark, the cells were analyzed using a flow cytometer (LSRFortessa, BD).
An analysis of peptide impact on the activity of immune cells was performed on human PBMCs. These cells were incubated with PDGF2 (1.0 ug/ml) for 48h and the effects of stimulation were evaluated by flow cytometry. […]

[6] = XTT test, 0.01 to 150 µg / ml tested, result in words

Row | Compound | effect on chemotaxis [1] | increase in proliferation relative to control ([2]; 1, 10, 25 and 50 µg / ml after 48h and 72h) | inhibition of proliferation [2, 6] | increase in proliferation relative to control ([3]; 0.1, 1, 10 and 25 µg / ml after 48h, 0.1, 1, 10, 25, 50, 100 and 150 µg / ml after 72h) | inhibition of proliferation [3, 6] | increase in proliferation relative to control [4] | activation of dendritic cells (CD80, CD83) [5]
1 | CC[C@H](C)[C@H](NC(=O)[C@H](CC(C)C)NC(=O)[C@@H](N)CCCNC(=N)N)C(=O)N[C@@H](CC(=O)O)C(=O)N[C@@H](CCCNC(=N)N)C(=O)N[C@H](C(=O)N[C@@H](CC(N)=O)C(=O)N[C@@H](C)C(=O)N[C@@H](CC(N)=O)C(=O)N[C@@H](Cc1ccccc1)C(=O)N[C@@H](CC(C)C)C(=O)NCCCC[C@H](NC(=O)[C@H](CCCNC(=N)N)NC(C)=O)C(=O)N[C@H](C(=O)N[C@@H](CCC(=O)O)C(=O)N[C@H](C(=O)N[C@H](C(=O)N[C@@H](CCCNC(=N)N)C(=O)N[C@@H](CCCCN)C(=O)N[C@@H](CCCCN)C(=O)N1CCC[C@H]1C(=O)N[C@H](C(=O)N[C@@H](Cc1ccccc1)C(N)=O)[C@@H](C)CC)C(C)C)[C@@H](C)CC)[C@@H](C)CC)[C@@H](C)O [PDGF3] (I: Ac-RKIEIVRKKPIF-NH2 / II: H-RLIDRTNANFL; amide I:2-II:C) | inhibit the chemotaxis | 10-60% | does not inhibit the proliferation | 20-120% | does not inhibit the proliferation | 20-40% | –
2 | RLIDRTNANFL-NH2 [PDGF2, R^1L^2I^3D^4R^5T^6N^7A^8N^9F^10L^11-NH2] | – | – | – | – | – | – | not activated
